Values quoted from earlier work, collected in publication PMC12042267, “Expanding the Family of Monosubstituted 15-Membered Pyridine-Based Macrocyclic Ligands for Mn(II) Complexation in the Context of MRI” (Inorganic Chemistry, 2025).
Like-named read-outs stand apart in the source and are kept apart here.

Assays:
[1] = cited from earlier work
[2] = cited from earlier work; remark: listed apart in the source
[3] = cited from earlier work; for r1 (relaxivity): 20 MHz, 0.47 T ref 28; for r1p298: 298 K and 0.47 T ref 21
[4] = Zn(II), cited from earlier work
[5] = cited from earlier work; remark: listed apart in the source
[6] = Ca(II), cited from earlier work
[7] = cited from earlier work; remark: listed apart in the source
[8] = Cu(II), cited from earlier work
[9] = Mn(II) complex, cited from earlier work; for dissociation half-life t1/2: calculated for pH 7.4
[10] = 0.15 NaCl and 2 mM concentration ref 21, 58

Molecule: O.O.[Mn+2].c1cc2nc(c1)CNCCOCCOCCNC2 [Mn(15-pyN3O2)]
- AO/ℏ [1]: 38.6 10^6 rad s^–1
- ErH [1]: 16.1 kJ mol^–1
- kex^298 [1]: 0.38 10^7 s^–1
- ΔH^‡ [1]: 35.3 kJ mol^–1
- ΔS^‡ [1]: –1.0 J mol^–1K^–1
- Δ^2 [1]: 6.6 10^18 s^–2
- τrH^298 [1]: 40.3 ps
- τv^298 [1]: 3.3 ps
- Eox [2]: 912 mV
- r1 (relaxivity) ([3]; 25 °C): 4.48 mM^–1 s^–1
- r1 (relaxivity) ([3]; 37 °C): 3.61 mM^–1 s^–1

Molecule: c1cc2nc(c1)CNCCNCCNCCNC2 [15-pyN5]
- log KHML ([4]; 0.1 M NMe4Cl ref 28): 2.45
- log KML ([4]; 0.1 M NMe4Cl ref 28): 16.27
- log KML(OH) ([4]; 0.1 M NMe4Cl ref 28): -11.18
- log K1^H ([5]; 0.1 M NMe4Cl ref 28): 9.40
- log K2^H ([5]; 0.1 M NMe4Cl ref 28): 8.54
- log K3^H ([5]; 0.1 M NMe4Cl ref 28): 5.28
- log K1^H ([5]; 0.1 NaClO4 ref 40): 9.43
- log K2^H ([5]; 0.1 NaClO4 ref 40): 8.80
- log K3^H ([5]; 0.1 NaClO4 ref 40): 5.28
- log K1^H ([5]; 0.1 NaClO4 ref 41): 9.11
- log K2^H ([5]; 0.1 NaClO4 ref 41): 8.82
- log K3^H ([5]; 0.1 NaClO4 ref 41): 5.27
- log KML ([6]; 0.1 M NMe4Cl ref 28): 2.97
- log KML ([7]; Mn(II), 0.1 M NMe4Cl ref 28): 10.89
- log KML(OH) ([7]; Mn(II), 0.1 M NMe4Cl ref 28): -11.52
- log KHML ([7]; Mn(II), 0.1 M NMe4Cl, log KMnHL in Table 5 ref 28): 4.27
- log KHML ([7]; Mn(II), 0.1 M NaClO4 ref 40): 4.20
- log KML ([7]; Mn(II), 0.1 M NaClO4 ref 40): 11.64
- log KHML ([7]; Mn(II), 0.1 M NaClO4 ref 41): 4.51
- log KML ([7]; Mn(II), 0.1 M NaClO4 ref 41): 11.12
- pMn ([7]; pH 7.4, cMn = clig = 10^–5 M ref 28): 6.37
- pMn ([7]; pH 7.4, cMn = clig = 10^–5 M ref 40): 6.60
- pMn ([7]; pH 7.4, cMn = clig = 10^–5 M ref 41): 6.59
- log KML ([8]; 0.1 M NMe4Cl ref 28): 21.84
- log KML(OH) ([8]; 0.1 M NMe4Cl ref 28): -12.30
- k1 ([9]; Zn(II) transmetalation ref 28): 423 M^–1 s^–1
- k2 ([9]; Zn(II) transmetalation ref 28): 1.0 × 10^7 M^–2 s^–1
- k4 ([9]; Zn(II) transmetalation ref 28): 1.7 × 10^4 M^–2 s^–1
- dissociation half-life t1/2 ([9]; Zn(II) ref 28): 11.0 h

Molecule: O=C(O)CN1CCNCc2cccc(n2)CNCC1 [PC1A]
- log KHML ([4]; 0.1 M NMe4Cl ref 20): 3.03
- log KML ([4]; 0.1 M NMe4Cl ref 20): 17.01
- log K1^H ([5]; 0.1 M NMe4Cl ref 20): 10.47
- log K2^H ([5]; 0.1 M NMe4Cl ref 20): 8.71
- log K3^H ([5]; 0.1 M NMe4Cl ref 20): 2.79
- log KHML ([6]; 0.1 M NMe4Cl ref 20): 7.39
- log KML ([6]; 0.1 M NMe4Cl ref 20): 6.04
- log KML ([7]; Mn(II), 0.1 M NMe4Cl ref 20): 11.54
- log KHML ([7]; Mn(II), 0.1 M NMe4Cl, log KMnHL in Table 5 ref 20): 4.95
- pMn ([7]; pH 7.4, cMn = clig = 10^–5 M ref 20): 8.10
- log KHML ([8]; 0.1 M NMe4Cl ref 20): 2.09
- log KML ([8]; 0.1 M NMe4Cl ref 20): 18.62
- k1 ([9]; Zn(II) transmetalation ref 20): 2020 ± 40 M^–1 s^–1
- k2 ([9]; Zn(II) transmetalation ref 20): (8.0 ± 0.3) × 10^7 M^–2 s^–1
- dissociation half-life t1/2 ([9]; Zn(II) ref 20): 2.4 h

Molecule: Mn(EDTA)
- Eox [2, 10]: +769 mV

Molecule: O.O=C([O-])CN1CCNCCN(CC(=O)[O-])Cc2cccc(n2)C1.[Mn+2] [Mn(3,9-PC2A)]
- kex^298 [1]: 12.6 ± 1.2 10^7 s^–1
- ΔH^‡ [1]: 37.5 ± 2.4 kJ mol^–1
- Eox [2, 10]: +838 mV
- r1p298 [3]: 2.91 mM^–1 s^–1

Molecule: O.O=C([O-])CN1CCNCc2cccc(n2)CN(CC(=O)[O-])CC1.[Mn+2] [Mn(3,6-PC2A)]
- kex^298 [1]: 14.0 ± 2.5 10^7 s^–1
- ΔH^‡ [1]: 38.2 ± 3.9 kJ mol^–1
- Eox [2, 10]: +862 mV
- r1p298 [3]: 2.72 mM^–1 s^–1
